Experimental data taken from US9889087B2, “Intranasal delivery of β2-adrenergic receptor agonists for improving cognition in humans with down syndrome and compositions therefor” (priority 2014, dated 2018).
≈ marks a conversion by molar mass, not a printed value. Like-named read-outs stand apart in the source and are kept apart here.

Columns and labels:
Ts65Dn mice = settings: cited from earlier work; for contextual learning: earlier studies
Ts65Dn and 2N mice [1] = assay: Cardiovascular and respiratory system monitoring (MouseOx vital signs); format: in vivo, mouse; settings: 2N and Ts65Dn mice
Protocol: Cardiovascular and Respiratory System Monitoring. […] The monitor was attached to a collar clip with an LED sensor to enable recordings in free-moving mice. To minimize stress before recording, the collar clip was attached to each animal. After five minutes, heart rate, respiratory rate, and oxygen saturation were recorded using MOUSEOX® 6.3.13 for 10 minutes.

[2] = in vivo; cited from earlier work
Ts65Dn and 2N mice [3] = system: Ts65Dn and 2N mice
Protocol: b) Fear Conditioning. […] The fear conditioning tests were done using four FreezeScan chambers (Clever Sys) on days 4 and 5 after the start of the open field-testing. […] Four hours later, the mice were placed in the fear-conditioning chamber and their baseline activity was recorded for three minutes. At the end of this period, each mouse was exposed to five shocks (2 seconds each, 0.5 mA) with inter-trial intervals of 80 seconds. Twenty-four hours later, the mice were injected again, similar to the Training Day, and returned to the same fear-conditioning chamber for five minutes and their activity was recorded. Freezing was defined as a lack of movement for 3 frames.

Ts65Dn and 2N mice [4] = settings: intranasal 2 mg per kg for 5 days
Description: Mice were acclimated to handling for a period of two weeks before the onset of intranasal dosing. Acclimation helped to ensure a correct body position for maximum effectiveness of awake intranasal drug delivery. In addition, acclimation prevented the occurrence of anxiety reaction after dosing. Mice spent about 2-3 days on each of nine steps before progressing to the next step, depending upon the animal's comfort to handling. The mouse's stress level was used as a measure of progress. To do this, the mouse's movements, the amount and frequency of urination, defecation, trembling and biting were assessed.
7) The mouse was placed back on top of his cage for 2 min. and the entire process was repeated starting 2 min. after delivery of the first drop. All together the mouse received four drops of up to 6 μl each totaling a maximum volume of 24 μl of solution.
The training began on the 4th day of intranasal dosing.
The testing day was done on the 5th and final day of dosing.
The first trial for each mouse was done 3 hours post-intranasal dose.
6) The number of incorrect arm entries was quantified. Entries into the goal arm were not counted as errors, even if the platform was not located. An entry was considered to occur when all four legs of the mouse had entered the alley completely and the mouse was parallel to the alley walls. […]

physchem = settings: water
Ts65Dn and 2N mice [5] = assay: BrdU cell proliferation count in the DG; format: in vivo, mouse; settings: nadolol alone or nadolol + formoterol
Protocol: To identify proliferating cells, we used 5-bromo-2′-deoxyuridine (BrdU, Sigma). It was dissolved in PBS, filtered, and kept at 4° C. till use. After 15 days of treatment, each mouse was injected IP daily (50 mg/kg) with BrdU solution for 5 days. Thereafter, on day 21, all mice were anesthetized and transcardially perfused with ice-cold saline. The entire brain was immediately removed and the two hemispheres were separated. The left hemisphere was fixed overnight, cut, and stored. […] This was followed by incubation of sections in ABC.
Stereo-Investigator (MBF) was used to quantify the total number of BrdU-positive cells in the entire septo-temporal extent of DG. Following the outlining of the DG area at 4×, each positive profile was identified using a 100× oil objective. […] A Nanozoomer system (Hamamatsu 2.0 RS) was used to capture images of the entire slide in each case. High magnification images were captured using the Nanozoomer and stored.

## N[C@H](C(=O)O)[C@H](O)c1ccc(O)c(O)c1 [L-DOPS, L-threo-3,4-dihydroxyphenylserine]
Ts65Dn mice
  contextual learning: restored

## COc1ccc(CC(C)NCC(O)c2ccc(O)c(NC=O)c2)cc1 (stereo not shown) [formoterol]
Ts65Dn and 2N mice [1]; formoterol together with nadolol
  effect on oxygen saturation: no significant effects
Ts65Dn and 2N mice [1]; ANOVA treatment effect
  effect on heart rate: No significant effects
  effect on respiratory rate: No significant effects
[2]
  crossing of the blood brain barrier: cross the blood brain barrier
Ts65Dn and 2N mice [3]; 2N mice
  contextual learning: improvement
Ts65Dn and 2N mice [3]; Ts65Dn mice, 6 months, vs nadolol only
  contextual learning: significant improvement
Ts65Dn and 2N mice [3]; Ts65Dn mice, vs nadolol only
  freezing behavior within first five minutes in context: significant increase
Ts65Dn and 2N mice [4]
  spatial learning: significant improvement
physchem
  solubility: ~17.2 mg/mL (≈ 49.9 mM)

## CC(C)(C)NCC(O)COc1cccc2c1CC(O)C(O)C2 (stereo not shown) [nadolol]
Ts65Dn and 2N mice [5]
  total number of BrdU-positive profiles in the DG: 3,161.930±900

## O=C(NCCNCC(O)COc1ccc(O)cc1)N1CCOCC1 (stereo not shown) [xamoterol]
Ts65Dn mice
  contextual learning: significantly improve
Ts65Dn mice; later studies
  spatial learning and/or hyperactivity: did not improve
